This is an account of results in patent US12281057B2 (VERTEX PHARMACEUTICALS INCORPORATED, priority 2017, dated 2025).

The target of the assay is truncated form of human NaV 1.8 with full channel activity (Homo sapiens, UniProt Q9Y5Y9). Description: E-VIPR Assay Method A for detecting and measuring Nav inhibition (HEK cells, membrane potential FRET dyes, electrical stimulation). As to conditions: HEK cells expressing human NaV 1.8, HS (human serum) in compound loading buffer, 11 point dose response, top dose 3 μM, Table 20A, read-out: Nav 1.8 MedChem Optical Assay EVIPR Assay Method A HS IC50. Type of assay: cell-based. The procedure, abridged: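 Read-out: FRET membrane-potential dye ratio (460/580 nm) before and during E-VIPR field stimulation at 10 Hz for 10 s, expressed as % activity between DMSO and positive controls. Cells: HEK with truncated human NaV1.8; compound preincubated 30 min at room temp, final DMSO 0.625%.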
truncated form of human NaV 1.8 with full channel activity, sequence (Q9Y5Y9 126-1722 limits assumed): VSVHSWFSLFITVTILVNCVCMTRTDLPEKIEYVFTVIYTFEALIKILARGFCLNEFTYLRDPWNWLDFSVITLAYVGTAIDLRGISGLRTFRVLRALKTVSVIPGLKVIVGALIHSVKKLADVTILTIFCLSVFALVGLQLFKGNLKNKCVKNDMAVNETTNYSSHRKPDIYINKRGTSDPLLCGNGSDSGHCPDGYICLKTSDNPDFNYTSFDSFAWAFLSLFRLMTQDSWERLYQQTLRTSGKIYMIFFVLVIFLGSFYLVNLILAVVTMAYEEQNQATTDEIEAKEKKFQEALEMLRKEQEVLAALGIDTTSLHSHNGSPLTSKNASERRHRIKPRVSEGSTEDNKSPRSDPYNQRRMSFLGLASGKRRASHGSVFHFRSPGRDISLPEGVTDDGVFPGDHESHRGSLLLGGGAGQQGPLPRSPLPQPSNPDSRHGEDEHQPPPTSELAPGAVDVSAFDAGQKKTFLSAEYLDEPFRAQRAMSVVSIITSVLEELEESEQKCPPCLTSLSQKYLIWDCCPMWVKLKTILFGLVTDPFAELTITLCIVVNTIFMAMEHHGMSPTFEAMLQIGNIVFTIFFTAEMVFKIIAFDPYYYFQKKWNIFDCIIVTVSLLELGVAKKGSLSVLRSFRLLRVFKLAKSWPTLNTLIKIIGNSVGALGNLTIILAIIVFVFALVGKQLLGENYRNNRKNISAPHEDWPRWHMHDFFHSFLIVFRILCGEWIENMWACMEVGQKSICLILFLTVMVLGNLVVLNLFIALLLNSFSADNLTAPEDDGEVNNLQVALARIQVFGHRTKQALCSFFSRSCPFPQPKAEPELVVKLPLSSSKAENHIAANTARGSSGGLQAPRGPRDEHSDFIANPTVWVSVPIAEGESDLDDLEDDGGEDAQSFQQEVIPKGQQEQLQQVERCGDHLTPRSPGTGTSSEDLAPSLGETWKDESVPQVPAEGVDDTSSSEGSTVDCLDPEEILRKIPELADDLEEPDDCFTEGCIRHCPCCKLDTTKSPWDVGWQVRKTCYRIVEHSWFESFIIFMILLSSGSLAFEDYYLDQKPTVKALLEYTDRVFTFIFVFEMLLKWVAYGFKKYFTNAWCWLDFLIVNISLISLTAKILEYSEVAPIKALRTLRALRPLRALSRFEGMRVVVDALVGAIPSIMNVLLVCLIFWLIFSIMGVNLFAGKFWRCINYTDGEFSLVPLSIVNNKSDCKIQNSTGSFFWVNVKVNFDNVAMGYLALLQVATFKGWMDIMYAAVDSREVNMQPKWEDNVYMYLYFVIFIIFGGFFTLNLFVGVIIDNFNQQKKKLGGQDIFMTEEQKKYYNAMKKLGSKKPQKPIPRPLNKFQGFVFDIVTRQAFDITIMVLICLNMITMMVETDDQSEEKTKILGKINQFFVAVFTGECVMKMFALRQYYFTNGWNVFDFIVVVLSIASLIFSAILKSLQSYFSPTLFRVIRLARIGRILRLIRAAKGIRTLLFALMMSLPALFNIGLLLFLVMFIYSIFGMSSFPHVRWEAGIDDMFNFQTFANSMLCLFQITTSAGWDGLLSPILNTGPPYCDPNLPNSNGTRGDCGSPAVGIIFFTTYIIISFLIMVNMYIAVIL
Regarding `NC(=O)c1cc(NC(=O)c2cc(C(F)(F)C(F)(F)F)ccc2Oc2ccc(OC(F)(F)F)cc2)ccc1F` [Compound 79, N-(3-Carbamoyl-4-fluoro-phenyl)-5-(1,1,2,2,2-pentafluoroethyl)-2-[4-(trifluoromethoxy)phenoxy]benzamide], the IC50 – broadly, the concentration that gives 50% inhibition – stood at 69 nM.
For the molecule `NC(=O)c1cc(NC(=O)c2cc(C(F)(F)C(F)(F)F)ccc2Oc2ccc(OC(F)(F)F)cc2)ccn1` [Compound 80, 4-[[5-(1,1,2,2,2-pentafluoroethyl)-2-[4-(trifluoromethoxy)phenoxy]benzoyl]amino]pyridine-2-carboxamide], the IC50 worked out at 127 nM.
The same measure for `COc1cc(OC(F)(F)F)ccc1Oc1ccc(C(F)(F)C(F)(F)F)cc1C(=O)Nc1ccnc(C(N)=O)c1` [Compound 81]: 38 nM; for `COc1cc(OC(F)(F)F)ccc1Oc1ccc(C(F)(F)F)c(F)c1C(=O)Nc1ccc(C(N)=O)cc1F` [Compound 82, N-(4-carbamoyl-2-fluoro-phenyl)-2-fluoro-6-[2-methoxy-4-(trifluoromethoxy)phenoxy]-3-(trifluoromethyl)benzamide]: 92 nM.
The result for `NC(=O)c1cc(NC(=O)c2c(Oc3ccc(OC(F)(F)F)cc3)ccc(C(F)F)c2F)ccn1` [Compound 83, 4-[[3-(Difluoromethyl)-2-fluoro-6-[4-(trifluoromethoxy)phenoxy]benzoyl]amino]pyridine-2-carboxamide] reads 48 nM; that for `COc1cc(OC(F)(F)F)ccc1Oc1cc(C(F)(F)F)ncc1C(=O)Nc1cc(C)nc(C(N)=O)c1` [Compound 84, 4-[[4-[2-Methoxy-4-(trifluoromethoxy)phenoxy]-6-(trifluoromethyl)pyridine-3-carbonyl]amino]-6-methyl-pyridine-2-carboxamide], 580 nM.
The result for `NC(=O)c1cc(NC(=O)c2c(Oc3ccc(OC(F)(F)F)cc3)ccc(C(F)(F)F)c2F)ccc1O` [Compound 85, N-(3-carbamoyl-4-hydroxy-phenyl)-2-fluoro-6-[4-(trifluoromethoxy)phenoxy]-3-(trifluoromethyl)benzamide] reads 320 nM.
With `COc1cc(OC(F)(F)F)ccc1Oc1ccc(C(F)(F)F)c(F)c1C(=O)Nc1cc(C)nc(C(N)=O)c1` [Compound 86, 4-[[2-fluoro-6-[2-methoxy-4-(trifluoromethoxy)phenoxy]-3-(trifluoromethyl)benzoyl]amino]-6-methyl-pyridine-2-carboxamide], the IC50 stood at 32 nM.
The result for `COc1cc(OC(F)(F)F)ccc1Oc1ccc(C(F)(F)F)c(F)c1C(=O)Nc1cc(C(N)=O)ccn1` [Compound 87, 2-[[2-fluoro-6-[2-methoxy-4-(trifluoromethoxy)phenoxy]-3-(trifluoromethyl)benzoyl]amino]pyridine-4-carboxamide] reads 150 nM.
The result for `[2H]C([2H])([2H])Oc1cc(OC(F)(F)F)ccc1Oc1cc(C2CC2)ncc1C(=O)Nc1ccc(F)c(C(N)=O)c1` [Compound 88, N-(3-Carbamoyl-4-fluoro-phenyl)-6-cyclopropyl-4-[2-(trideuteriomethoxy)-4-(trifluoromethoxy)phenoxy]pyridine-3-carboxamide] reads 49 nM; that for `NC(=O)c1cccc(NC(=O)c2c(Oc3ccc(OC(F)(F)F)cc3F)ccc(C(F)(F)F)c2F)c1` [Compound 89, N-(3-carbamoylphenyl)-2-fluoro-6-[2-fluoro-4-(trifluoromethoxy)phenoxy]-3-(trifluoromethyl)benzamide], 44 nM; that for `NC(=O)c1cc(NC(=O)c2c(Oc3ccc(OC(F)(F)F)cc3F)ccc(C(F)(F)F)c2F)ccn1` [Compound 90, 4-[[2-fluoro-6-[2-fluoro-4-(trifluoromethoxy)phenoxy]-3-(trifluoromethyl)benzoyl]amino]pyridine-2-carboxamide], 38 nM.
The same measure for `COc1c(C(F)(F)F)ccc(Oc2ccc(OC(F)(F)F)cc2)c1C(=O)Nc1ccnc(C(N)=O)c1` [Compound 91, 4-[[2-Methoxy-6-[4-(trifluoromethoxy)phenoxy]-3-(trifluoromethyl)benzoyl]amino]pyridine-2-carboxamide]: 40 nM; for `COc1cc(OC(F)(F)F)ccc1Oc1ccc(C(F)(F)F)c(OC)c1C(=O)Nc1ccc(F)c(C(N)=O)c1` [Compound 92, N-(3-Carbamoyl-4-fluoro-phenyl)-2-methoxy-6-[2-methoxy-4-(trifluoromethoxy)phenoxy]-3-(trifluoromethyl)benzamide]: 2 nM; for `COc1cc(OC(F)(F)F)ccc1Oc1cc(C(C)(C)C)ncc1C(=O)Nc1ccnc(C(N)=O)c1` [Compound 93, 6-tert-Butyl-N-(2-carbamoyl-4-pyridyl)-4-[2-methoxy-4-(trifluoromethoxy)phenoxy]pyridine-3-carboxamide]: 63 nM.
Regarding `COc1cc(OC(F)(F)F)ccc1Oc1cc(C(C)(C)C)ncc1C(=O)Nc1ccc(F)c(C(N)=O)c1` [Compound 94, 6-tert-Butyl-N-(3-carbamoyl-4-fluoro-phenyl)-4-[2-methoxy-4-(trifluoromethoxy)phenoxy]pyridine-3-carboxamide], the IC50 is 18 nM.
The result for `COc1cc(OC(F)(F)F)ccc1Oc1ccc(C(F)(F)F)c(F)c1C(=O)Nc1ccc(F)c(C(=O)N(C)C)c1` [Compound 95, N-[3-(dimethylcarbamoyl)-4-fluoro-phenyl]-2-fluoro-6-[2-methoxy-4-(trifluoromethoxy)phenoxy]-3-(trifluoromethyl)benzamide] reads 45 nM; that for `COc1cc(OC(F)(F)F)ccc1Oc1ccc(C(F)(F)F)c(F)c1C(=O)Nc1cccc(C(=O)N(C)C)c1` [Compound 96, N-[3-(dimethylcarbamoyl)phenyl]-2-fluoro-6-[2-methoxy-4-(trifluoromethoxy)phenoxy]-3-(trifluoromethyl)benzamide], 54 nM.
The same measure for `COc1cc(OC(F)(F)F)ccc1Oc1ccc(C(F)(F)F)c(F)c1C(=O)Nc1ccnc(C(=O)N(C)C)c1` [Compound 97, 4-[[2-fluoro-6-[2-methoxy-4-(trifluoromethoxy)phenoxy]-3-(trifluoromethyl)benzoyl]amino]-N,N-dimethyl-pyridine-2-carboxamide]: 20 nM; for `CNC(=O)c1cccc(NC(=O)c2c(Oc3ccc(OC(F)(F)F)cc3OC)ccc(C(F)(F)F)c2F)c1` [Compound 98, 2-fluoro-6-[2-methoxy-4-(trifluoromethoxy)phenoxy]-N-[3-(methylcarbamoyl)phenyl]-3-(trifluoromethyl)benzamide]: 15 nM; for `CNC(=O)c1cc(NC(=O)c2c(Oc3ccc(OC(F)(F)F)cc3OC)ccc(C(F)(F)F)c2F)ccc1F` [Compound 99, 2-fluoro-N-[4-fluoro-3-(methylcarbamoyl)phenyl]-6-[2-methoxy-4-(trifluoromethoxy)phenoxy]-3-(trifluoromethyl)benzamide]: 3 nM.
The same measure for `COc1cc(OC(F)(F)F)ccc1Oc1ccc(C(F)(F)F)c(F)c1C(=O)Nc1cc(F)cc(C(N)=O)c1` [Compound 100, N-(3-carbamoyl-5-fluoro-phenyl)-2-fluoro-6-[2-methoxy-4-(trifluoromethoxy)phenoxy]-3-(trifluoromethyl)benzamide]: 9 nM; for `NC(=O)c1cc(F)cc(NC(=O)c2c(Oc3ccc(OC(F)(F)F)cc3)ccc(C(F)(F)F)c2F)c1` [Compound 101, N-(3-carbamoyl-5-fluoro-phenyl)-2-fluoro-6-[4-(trifluoromethoxy)phenoxy]-3-(trifluoromethyl)benzamide]: 135 nM.
